The source of these data is patent publication US10703764B2, “Benzopiperazine compositions as BET bromodomain inhibitors” (FORMA Therapeutics, Inc., priority 2013, dated 2020).

Assay [1] deals with T1, BRD4 BD1 (Homo sapiens, UniProt O60885).
T1 construct: made in house
Nature of the assay: AlphaScreen binding assay, BRD4 Bromodomain 1. The gist of the method:
(§1)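 An AlphaScreen competition format was used with His-BRD4 BD1 or BD2 and biotin-H4 K5/8/12/16-acetyl peptide, each at matched final levels of 50 nM (BD1) or 100 nM (BD2). Incubation in HEPES/NaCl buffer with 0.1% BSA and 0.01% Triton X-100 ran ≥1 h before IC50 determination.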

For assay [2], the target named is T2, BRD4 BD2 (Homo sapiens, UniProt O60885).
T2 construct: made in house
Nature of the assay: AlphaScreen binding assay, BRD4 Bromodomain 2. The gist of the method: as §1

`CC(=O)N1c2ccc(-c3ccc(S(C)(=O)=O)cc3)cc2N(C(=O)Nc2ccccc2C)C[C@@H]1C` [Example I-966]: the figures for the IC50 in assay [1] and in assay [2] were greater than 10000 nM and greater than 500 nM, respectively.

For `CC(=O)N1c2ccc(-c3ccnc(C(F)(F)F)c3)cc2N(C(=O)c2ccco2)C[C@@H]1C` [Example I-861], the values for the IC50 in assay [1] and in assay [2] were 1000 to 10000 nM and 50 to 500 nM, respectively.

Take `CC(=O)N1c2ccccc2N(Cc2cncn2C)C[C@@H]1C` [Example I-926]: the IC50 in assay [1] is greater than 10000 nM; in assay [2], greater than 500 nM.

On to `CC(=O)N1c2ccc(-c3ccc(F)c(C(=O)NC(C)C)c3)cc2N(C(=O)c2ccco2)C[C@@H]1C` [Example I-829], for which the IC50 in assay [1] is 1000 to 10000 nM; in assay [2], less than 50 nM.

Take `CC(=O)N1c2ccccc2N(Cc2cccc(Oc3ccccc3)c2)C[C@@H]1C` [Example I-918]: the IC50 was greater than 10000 nM in assay [1] and greater than 500 nM in assay [2].

`COCC(=O)N1C[C@H](C)N(C(C)=O)c2ccccc21` [Example I-738]: the IC50 was greater than 10000 nM in assay [1] and greater than 500 nM in assay [2].

On to `CC(=O)N1c2ccccc2N(Cc2cccc3c2OCO3)C[C@@H]1C` [Example I-921], for which the IC50 is greater than 10000 nM in assay [1] and 50 to 500 nM in assay [2].

`COc1cc(C(=O)N2C[C@H](C)N(C(C)=O)c3ccccc32)nc2ccccc12` [Example I-753]: the IC50 in assay [1] is greater than 10000 nM; in assay [2] it was greater than 500 nM.

Regarding `CC(=O)N1c2ccc(-c3ccc(C(=O)NCCN)cc3)cc2N(C(=O)C2CC2)C[C@@H]1C` [Example I-451], the IC50 in assay [1] is 100 to 1000 nM; in assay [2], 50 to 500 nM.

For the compound `CC(=O)N1c2ccc(-c3ccc(S(C)(=O)=O)cc3)cc2N(c2ncc(-c3ccccc3)cn2)C[C@@H]1C` [Example I-50, (S)-1-(2-methyl-6-(4-(methylsulfonyl)phenyl)-4-(5-phenylpyrimidin-2-yl)-3,4-dihydroquinoxalin-1(2H)-yl)ethanone], the IC50 is 1000 to 10000 nM in assay [1] and greater than 500 nM in assay [2].

With `COc1cc(OC(=O)N2C[C@H](C)N(C(C)=O)c3ccc(-c4cnn(C5CC5)c4)cc32)c(Cl)cn1` [Example I-1209], the IC50 in assay [1] was in the range of 1000 to 10000 nM; in assay [2], 50 to 500 nM.

With `COc1ccc(S(=O)(=O)N2C[C@H](C)N(C(C)=O)c3ccccc32)c(OC)c1` [Example I-950], the concentration for half-maximal inhibition (IC50) is greater than 10000 nM in assay [1] and greater than 500 nM in assay [2].

`CC(=O)N1c2ccccc2N(C(=O)c2cc(C)n(C)n2)C[C@@H]1C` [Example I-755]: the IC50 in assay [1] was greater than 10000 nM; in assay [2] it was greater than 500 nM.

As for `CC(=O)N1c2ccccc2N(C(=O)c2ccccc2)C[C@@H]1C` [Example I-694], the IC50 in assay [1] is greater than 10000 nM; in assay [2] it was greater than 500 nM.

With `CNC(=O)N1C[C@H](C)N(C(C)=O)c2ccc(-c3ccc(S(C)(=O)=O)cc3)cc21` [Example I-253], the values for the IC50 in assay [1] and in assay [2] were greater than 10000 nM and greater than 500 nM, respectively.

Turning to `COC(=O)N1c2ccc(-c3cnn(CCC#N)c3)cc2N(C(=O)Oc2cccnc2)C[C@@H]1C` [Example I-1289], the IC50 in assay [1] lay within 1000 to 10000 nM; in assay [2], 50 to 500 nM.

For `CC(=O)N1c2ccccc2N(C(=O)c2cccs2)C[C@@H]1C` [Example I-745], the concentration for half-maximal inhibition (IC50) was greater than 10000 nM in assay [1] and greater than 500 nM in assay [2].

`CC(=O)N1c2ccccc2N(S(=O)(=O)Cc2cccc(Cl)c2)C[C@@H]1C` [Example I-955]: the IC50 in assay [1] was greater than 10000 nM; in assay [2], greater than 500 nM.

With `CC(=O)N1c2ccc(-c3ccc4[nH]c(=O)[nH]c4c3)cc2N(C(=O)c2ccco2)CC1C` (stereo not shown) [Example I-394], the values for the IC50 in assay [1] and in assay [2] were 100 to 1000 nM and less than 50 nM, respectively.

As for `COC(=O)N1c2ccc(-c3cn(C)nn3)cc2N(C(=O)C2CC2)C[C@@H]1C` [Example I-464], the IC50 in assay [1] is 1000 to 10000 nM; in assay [2], 50 to 500 nM.

As to `CC(=O)N1c2ccccc2N(C(=O)c2ccc3cc[nH]c3c2)CC1C` (stereo not shown) [Example I-760], the IC50 in assay [1] was greater than 10000 nM; in assay [2] it was greater than 500 nM.

As for `CC(=O)N1c2ccccc2N(CC2CCOCC2)C[C@@H]1C` [Example I-925], the IC50 in assay [1] is greater than 10000 nM; in assay [2], greater than 500 nM.

With `COc1ccc(C(=O)N2C[C@H](C)N(C(C)=O)c3ccc(-c4ccc(S(C)(=O)=O)cc4)cc32)cc1` [Example I-877], the IC50 in assay [1] lay in the range of 1000 to 10000 nM; in assay [2], 50 to 500 nM.

In the case of `CC(=O)N1c2ccccc2N(S(=O)(=O)Cc2ccccc2Cl)C[C@@H]1C` [Example I-953], the IC50 in assay [1] was greater than 10000 nM; in assay [2], greater than 500 nM.

In the case of `CC(=O)N1c2ccc(-c3cccc(C(N)=O)c3)cc2N(C(=O)c2ccco2)C[C@@H]1C` [Example I-856], the IC50 in assay [1] was 1000 to 10000 nM; in assay [2] it was less than 50 nM.

For the compound `CC(=O)N1c2ccc(-c3ccc(S(C)(=O)=O)cc3)nc2N(C(=O)C2CC2)C[C@@H]1C` [Example I-301], the IC50 in assay [1] was 1000 to 10000 nM; in assay [2], greater than 500 nM.

Regarding `COc1cc(-c2ccc3c(c2)N(C(=O)c2ccco2)C[C@H](C)N3C(C)=O)ccc1F` [Example I-828], the IC50 in assay [1] lay in the range of 1000 to 10000 nM; in assay [2], 50 to 500 nM.

As for `CC(C)OC(=O)N1C[C@H](C)N(C(=O)C2CC2)c2ccc(-c3cnn(CC(=O)O)c3)cc21` [Example I-340], the IC50 was 1000 to 10000 nM in assay [1] and greater than 500 nM in assay [2].

Consider `CC(=O)N1c2ccc(-c3cnn(C(C)(C)C(N)=O)c3)cc2N(C(=O)C2CC2)C[C@@H]1C` [Example I-648], for which the IC50 was in the range of 1000 to 10000 nM in assay [1] and 50 to 500 nM in assay [2].

On to `CC(=O)N1c2ccc(-c3cccc(-c4nnc(C)o4)c3)cc2N(C(=O)c2ccco2)C[C@@H]1C` [Example I-854], for which the figures for the IC50 in assay [1] and in assay [2] were 1000 to 10000 nM and 50 to 500 nM, respectively.

As for `CNC(=O)Cn1cc(-c2ccc3c(c2)N(C(=O)C2CC2)C[C@H](C)N3C(C)=O)cn1` [Example I-132, (S)-2-(4-(1-acetyl-4-(cyclopropanecarbonyl)-2-methyl-1,2,3,4-tetrahydroquinoxalin-6-yl)-1H-pyrazol-1-yl)-N-methylacetamide], the IC50 in assay [1] was in the range of 1000 to 10000 nM; in assay [2], 50 to 500 nM.

In the case of `CC(=O)N1c2ccc(-c3cnn(CC(N)=O)c3)cc2N(C(=O)C2CC2)C[C@@H]1C` [Example I-655], the IC50 was 1000 to 10000 nM in assay [1] and 50 to 500 nM in assay [2].

As to `CC(=O)N1c2ccccc2N(C(=O)c2ccc(-c3ccccc3)cc2)C[C@@H]1C` [Example I-703], the IC50 is greater than 10000 nM in assay [1] and greater than 500 nM in assay [2].

`CC(=O)N1c2ccc(-c3ccc(S(C)(=O)=O)cc3)cc2N(C(=O)c2cn(C)cn2)C[C@@H]1C` [Example I-881]: the IC50 was greater than 10000 nM in assay [1] and greater than 500 nM in assay [2].

For `CC(=O)N1c2ccc(-c3ccc4c(c3)n(C)c(=O)n4C)cc2N(C(=O)c2ccco2)C[C@@H]1C` [Example I-395], the figures for the IC50 in assay [1] and in assay [2] were 100 to 1000 nM and less than 50 nM, respectively.

Regarding `CCc1ccc(CN2C[C@H](C)N(C(C)=O)c3ccccc32)cc1` [Example I-901], the IC50 in assay [1] is greater than 10000 nM; in assay [2], greater than 500 nM.

Consider `CC(=O)N1c2ccc(-c3ccc(=O)n(C)c3)cc2N(C(=O)c2ccco2)C[C@@H]1C` [Example I-411], for which the IC50 fell in the range of 1000 to 10000 nM in assay [1] and 50 to 500 nM in assay [2].

Take `CC(=O)N1c2ccccc2N(C(=O)CCN2CCCCCC2=O)C[C@@H]1C` [Example I-765]: the IC50 in assay [1] was greater than 10000 nM; in assay [2], greater than 500 nM.
